Legend:
Type in all cases: in vivo
[1] = test system: Alopecurus myosuroides (ALOMY); assay: Example B post-emergence herbicidal activity, glasshouse pot test; conditions: 312 h, evaluated after 13 days, read-out: Post-emergence activity ALOMY (100=total damage to plant; 0=no damage to plant); for pest or weed control at 250 g/ha: rate 250 g/ha; for pest or weed control at 1000 g/ha: rate 1000 g/ha
In short: (§1)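 Damage rated 13 days after treatment on a 0 (no damage) to 100 (total damage) scale. Spray of acetone/water (50:50) with 0.5% Tween 20 went onto soil-sown pots at day 1 (pre-emergence) or day 8 (post-emergence); glasshouse kept at 24/16 °C, 14 h light, 65% humidity.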

[2] = test system: Echinochloa crus-galli (ECHCG); assay: as above; conditions: 312 h, evaluated after 13 days, read-out: Post-emergence activity ECHCG (100=total damage to plant; 0=no damage to plant); for pest or weed control at 250 g/ha: rate 250 g/ha; for pest or weed control at 1000 g/ha: rate 1000 g/ha
In short: as §1

[3] = test system: Amaranthus retroflexus (AMARE); assay: as above; conditions: 312 h, evaluated after 13 days, read-out: Post-emergence activity AMARE (100=total damage to plant; 0=no damage to plant); for pest or weed control at 250 g/ha: rate 250 g/ha; for pest or weed control at 1000 g/ha: rate 1000 g/ha
In short: as §1

Avena fatua (AVEFA) [4] = assay: as above; conditions: 312 h, evaluated after 13 days, read-out: Post-emergence activity AVEFA (100=total damage to plant; 0=no damage to plant); for pest or weed control at 250 g/ha: rate 250 g/ha; for pest or weed control at 1000 g/ha: rate 1000 g/ha
In short: as §1

Solanum nigrum (SOLNI) [5] = assay: as above; conditions: 312 h, evaluated after 13 days, read-out: Post-emergence activity SOLNI (100=total damage to plant; 0=no damage to plant); for pest or weed control at 250 g/ha: rate 250 g/ha; for pest or weed control at 1000 g/ha: rate 1000 g/ha
In short: as §1

Setaria faberi (SETFA) [6] = assay: as above; conditions: 312 h, evaluated after 13 days, read-out: Post-emergence activity SETFA (100=total damage to plant; 0=no damage to plant); for pest or weed control at 250 g/ha: rate 250 g/ha; for pest or weed control at 1000 g/ha: rate 1000 g/ha
In short: as §1

[7] = test system: Alopecurus myosuroides (ALOMY); assay: Example B pre-emergence herbicidal activity, glasshouse pot test; conditions: 312 h, evaluated after 13 days, read-out: Pre-emergence activity ALOMY (100=total damage to plant; 0=no damage to plant); for pest or weed control at 250 g/ha: rate 250 g/ha; for pest or weed control at 1000 g/ha: rate 1000 g/ha
In short: as §1

[8] = test system: Echinochloa crus-galli (ECHCG); assay: as above; conditions: 312 h, evaluated after 13 days, read-out: Pre-emergence activity ECHCG (100=total damage to plant; 0=no damage to plant); for pest or weed control at 250 g/ha: rate 250 g/ha; for pest or weed control at 1000 g/ha: rate 1000 g/ha
In short: as §1

[9] = test system: Amaranthus retroflexus (AMARE); assay: as above; conditions: 312 h, evaluated after 13 days, read-out: Pre-emergence activity AMARE (100=total damage to plant; 0=no damage to plant); for pest or weed control at 250 g/ha: rate 250 g/ha; for pest or weed control at 1000 g/ha: rate 1000 g/ha
In short: as §1

Avena fatua (AVEFA) [10] = assay: as above; conditions: 312 h, evaluated after 13 days, read-out: Pre-emergence activity AVEFA (100=total damage to plant; 0=no damage to plant); for pest or weed control at 250 g/ha: rate 250 g/ha; for pest or weed control at 1000 g/ha: rate 1000 g/ha
In short: as §1

Solanum nigrum (SOLNI) [11] = assay: as above; conditions: 312 h, evaluated after 13 days, read-out: Pre-emergence activity SOLNI (100=total damage to plant; 0=no damage to plant); for pest or weed control at 250 g/ha: rate 250 g/ha; for pest or weed control at 1000 g/ha: rate 1000 g/ha
In short: as §1

Setaria faberi (SETFA) [12] = assay: as above; conditions: 312 h, evaluated after 13 days, read-out: Pre-emergence activity SETFA (100=total damage to plant; 0=no damage to plant); for pest or weed control at 250 g/ha: rate 250 g/ha; for pest or weed control at 1000 g/ha: rate 1000 g/ha
In short: as §1

SMILES | pest or weed control at 250 g/ha [1] | pest or weed control at 250 g/ha [2] | pest or weed control at 250 g/ha [3] | pest or weed control at 250 g/ha (Avena fatua (AVEFA) [4]) | pest or weed control at 250 g/ha (Solanum nigrum (SOLNI) [5]) | pest or weed control at 250 g/ha (Setaria faberi (SETFA) [6]) | pest or weed control at 250 g/ha [7] | pest or weed control at 250 g/ha [8] | pest or weed control at 1000 g/ha [1] | pest or weed control at 1000 g/ha [2] | pest or weed control at 1000 g/ha [3] | pest or weed control at 1000 g/ha (Avena fatua (AVEFA) [4]) | pest or weed control at 1000 g/ha (Solanum nigrum (SOLNI) [5]) | pest or weed control at 1000 g/ha (Setaria faberi (SETFA) [6]) | pest or weed control at 1000 g/ha [7] | pest or weed control at 1000 g/ha [8] | pest or weed control at 1000 g/ha [9] | pest or weed control at 1000 g/ha (Avena fatua (AVEFA) [10]) | pest or weed control at 1000 g/ha (Solanum nigrum (SOLNI) [11]) | pest or weed control at 1000 g/ha (Setaria faberi (SETFA) [12]) | other results
CCc1ccc(-c2ccc(Cl)nc2C)cc1C1=C(O)C(C)(C)C(=O)C(C)(C)C1=O [Compound B-30] | 20% | 70% | 0% | 0% | 10% | 70% | 0% | 0% | – | – | – | – | – | – | – | – | – | – | – | – | pest or weed control at 250 g/ha [9]: 0%; pest or weed control at 250 g/ha (Avena fatua (AVEFA) [10]): 0%; pest or weed control at 250 g/ha (Solanum nigrum (SOLNI) [11]): 0%; pest or weed control at 250 g/ha (Setaria faberi (SETFA) [12]): 0%
CCc1ccc(-c2ccc(Cl)c(C(F)(F)F)c2)cc1C1=C(O)C(C)(C)C(=O)C(C)(C)C1=O [Compound B-10] | 40% | 90% | 40% | 20% | 0% | 80% | 0% | 30% | – | – | – | – | – | – | – | – | – | – | – | – | pest or weed control at 250 g/ha [9]: 0%; pest or weed control at 250 g/ha (Avena fatua (AVEFA) [10]): 0%; pest or weed control at 250 g/ha (Solanum nigrum (SOLNI) [11]): 20%; pest or weed control at 250 g/ha (Setaria faberi (SETFA) [12]): 50%
CCOC(=O)OC1=C(c2cc(-c3ccc(Cl)cc3)ccc2CC)C(=O)C(C)(C)OC1(C)C [Compound D-13] | – | – | – | – | – | – | – | – | 60% | 100% | 0% | 0% | 0% | 100% | 50% | 90% | 0% | 20% | 0% | 90% | –
CCc1ccc(-c2ccc(Cl)cc2)cc1C1=C(OC(=O)C(C)CC)C(C)(C)OC(C)(C)C1=O [Compound D-11] | – | – | – | – | – | – | – | – | 40% | 100% | 0% | 0% | 0% | 90% | 20% | 20% | 0% | 0% | 0% | 90% | –
Cc1ccc(-c2ccc(Cl)cc2Cl)cc1C1=C(O)C(C)(C)C(=O)C(C)(C)C1=O [Compound B-7] | – | – | – | – | – | – | – | – | 20% | 60% | 70% | 20% | 70% | 70% | 0% | 50% | 0% | 0% | 20% | 60% | –
Cc1ccc(-c2cc(F)cc(F)c2)cc1C1=C(O)C(C)(C)OC(C)(C)C1=O [Compound A-25] | – | – | – | – | – | – | – | – | 70% | 90% | 100% | 0% | 70% | 70% | 70% | 80% | 0% | 30% | 0% | 20% | –
